From patent publication US9850283B2, “Macrocyclic inhibitors of the PD-1/PD-L1 and CD80(B7-1)/PD-L1 protein/protein interactions” (BRISTOL-MYERS SQUIBB COMPANY, priority 2013, dated 2017)
Positions of bridges follow the written chain, without caps; N, C: chain ends. Non-standard residues stand in square brackets, D forms with d. Residues, ends and D or L forms follow the SMILES beside them. Phe(3,4-(OMe)2) = COc1ccc(C[C@H](N)C(=O)O)cc1OC; Phe(4-CONH2) = NC(=O)c1ccc(C[C@H](N)C(=O)O)cc1; Phe(4-tBu) = CC(C)(C)c1ccc(C[C@H](N)C(=O)O)cc1; Phe(3,5-F2) = N[C@@H](Cc1cc(F)cc(F)c1)C(=O)O; Phe(4-CH2NH2) = NCc1ccc(C[C@H](N)C(=O)O)cc1; Phe(3-CN) = N#Cc1cccc(C[C@H](N)C(=O)O)c1; Phe(4-CN) = N#Cc1ccc(C[C@H](N)C(=O)O)cc1; Phe(4-Cl) = N[C@@H](Cc1ccc(Cl)cc1)C(=O)O; Phe(4-F) = N[C@@H](Cc1ccc(F)cc1)C(=O)O; Hyp = O=C(O)[C@@H]1C[C@@H](O)CN1; NMeNle = CCCC[C@H](NC)C(=O)O; NMeA = CN[C@@H](C)C(=O)O; Dap = NC[C@H](N)C(=O)O

Assays:
Human PD-L1/PD-1 = target: T1, Human PD-L1/PD-1 (Homo sapiens, UniProt Q9NZQ7); assay: HTRF PD-1-Ig/PD-L1-His binding assay (human PD-L1); conditions: cluster symbol; read-out: HTRF IC50 cluster
T1 construct: made in house; host or cells: HEK293T
Method in brief: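 Steps: truncated PD-1-Ig and PD-L1-His fusions are incubated in dPBS containing 0.1% (w/v) BSA and 0.05% (v/v) Tween-20. Detection antibodies are then added (Eu cryptate anti-Ig at 1 nM final, APC anti-His at 20 nM final), and time-resolved FRET is measured.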

[1] = target: T2, LK35.2-hPD-L1 cells / PE-labeled PD-1-Ig (Homo sapiens, UniProt Q9NZQ7); assay: LK35.2-hPD-L1 cell binding high-content screening assay; format: cell-based; conditions: cell binding assay, cell line not given; cluster symbol; read-out: CBA IC50 cluster
T2 construct: expressed in transfected cells; host or cells: LK35.2 mouse B cell line
Method in brief: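 Mouse LK35.2 B cells stably over-expressing human PD-L1, cultured overnight, treated with compound plus PE-labeled human PD-1-Ig (1 nM final) in RPMI/10% FCS for 1 h at 37 °C. After washing, bound fluorescence quantified by high-content imaging.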

T2 sequence (Q9NZQ7 19-290): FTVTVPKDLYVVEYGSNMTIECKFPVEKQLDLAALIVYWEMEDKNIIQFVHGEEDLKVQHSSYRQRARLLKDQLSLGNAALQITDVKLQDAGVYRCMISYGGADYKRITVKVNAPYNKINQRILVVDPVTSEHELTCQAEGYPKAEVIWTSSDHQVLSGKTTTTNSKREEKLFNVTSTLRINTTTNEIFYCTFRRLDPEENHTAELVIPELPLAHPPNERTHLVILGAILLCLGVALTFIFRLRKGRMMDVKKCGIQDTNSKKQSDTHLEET
T1 sequence (Q9NZQ7 with tags, fused parts or gaps): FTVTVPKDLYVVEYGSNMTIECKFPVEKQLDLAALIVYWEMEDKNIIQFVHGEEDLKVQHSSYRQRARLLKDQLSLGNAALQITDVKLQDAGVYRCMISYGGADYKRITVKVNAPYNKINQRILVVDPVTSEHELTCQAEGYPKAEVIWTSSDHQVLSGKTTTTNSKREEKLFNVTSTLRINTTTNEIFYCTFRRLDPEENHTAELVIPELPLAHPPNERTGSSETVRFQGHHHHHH

With CCCC[C@H]1C(=O)N(C)[C@@H](CCCC)C(=O)N[C@@H](CCCNC(=N)N)C(=O)N[C@H](C(=O)NCC(N)=O)CSCC(=O)N[C@@H](Cc2cccc(C#N)c2)C(=O)N(C)[C@@H](C)C(=O)N[C@@H](CC(N)=O)C(=O)N2CCC[C@H]2C(=O)N[C@@H](CN)C(=O)N[C@@H](CC(C)C)C(=O)N2C[C@H](O)C[C@H]2C(=O)N[C@@H](Cc2c[nH]c3ccccc23)C(=O)N[C@@H](CO)C(=O)N[C@@H](Cc2c[nH]c3ccccc23)C(=O)N1C [Example 7037] ({CH2CO}-[Phe(3-CN)][NMeA]NP[Dap]L[Hyp]WSW[NMeNle][NMeNle]RCG-NH2; thioether N-14) as the compound, how does the IC50 (Human PD-L1/PD-1) read?
The IC50 was 6.76 to 30.3 nM.

What about the IC50 [1] of the same compound?
Its IC50 is 4.78 to 72.9 nM.

How did the IC50 (Human PD-L1/PD-1) turn out when CCCC[C@H]1C(=O)N(C)[C@@H](CCCC)C(=O)N[C@@H](CCCNC(=N)N)C(=O)N[C@H](C(=O)NCC(N)=O)CSCC(=O)N[C@@H](Cc2ccc(C#N)cc2)C(=O)N(C)[C@@H](C)C(=O)N[C@@H](CC(N)=O)C(=O)N2CCC[C@H]2C(=O)N[C@@H](CN)C(=O)N[C@@H](CC(C)C)C(=O)N2C[C@H](O)C[C@H]2C(=O)N[C@@H](Cc2c[nH]c3ccccc23)C(=O)N[C@@H](CO)C(=O)N[C@@H](Cc2c[nH]c3ccccc23)C(=O)N1C [Example 7038] ({CH2CO}-[Phe(4-CN)][NMeA]NP[Dap]L[Hyp]WSW[NMeNle][NMeNle]RCG-NH2; thioether N-14) was run?
Its IC50 is 0.385 to 6.74 nM.

What about the IC50 [1] of the same compound?
Its IC50 is 0.158 to 4.71 nM.

How did the IC50 (Human PD-L1/PD-1) turn out when CCCC[C@H]1C(=O)N(C)[C@@H](CCCC)C(=O)N[C@@H](CCCNC(=N)N)C(=O)N[C@H](C(=O)NCC(N)=O)CSCC(=O)N[C@@H](Cc2ccc(OC)cc2)C(=O)N(C)[C@@H](C)C(=O)N[C@@H](CC(N)=O)C(=O)N2CCC[C@H]2C(=O)N[C@@H](CN)C(=O)N[C@@H](CC(C)C)C(=O)N2C[C@H](O)C[C@H]2C(=O)N[C@@H](Cc2c[nH]c3ccccc23)C(=O)N[C@@H](CO)C(=O)N[C@@H](Cc2c[nH]c3ccccc23)C(=O)N1C [Example 7039] ({CH2CO}-Y(Me)[NMeA]NP[Dap]L[Hyp]WSW[NMeNle][NMeNle]RCG-NH2; thioether N-14) was run?
Its IC50 is 0.385 to 6.74 nM.

And the IC50 [1]?
Its IC50 is 0.158 to 4.71 nM.

How did the IC50 (Human PD-L1/PD-1) turn out when CCCC[C@H]1C(=O)N(C)[C@@H](CCCC)C(=O)N[C@@H](CCCNC(=N)N)C(=O)N[C@H](C(=O)NCC(N)=O)CSCC(=O)N[C@@H](Cc2ccc(OC)c(OC)c2)C(=O)N(C)[C@@H](C)C(=O)N[C@@H](CC(N)=O)C(=O)N2CCC[C@H]2C(=O)N[C@@H](CN)C(=O)N[C@@H](CC(C)C)C(=O)N2C[C@H](O)C[C@H]2C(=O)N[C@@H](Cc2c[nH]c3ccccc23)C(=O)N[C@@H](CO)C(=O)N[C@@H](Cc2c[nH]c3ccccc23)C(=O)N1C [Example 7040] ({CH2CO}-[Phe(3,4-(OMe)2)][NMeA]NP[Dap]L[Hyp]WSW[NMeNle][NMeNle]RCG-NH2; thioether N-14) was run?
Its IC50 is 0.385 to 6.74 nM.

And the IC50 [1]?
Its IC50 is 4.78 to 72.9 nM.

Which results are given for CCCC[C@H]1C(=O)N(C)[C@@H](CCCC)C(=O)N[C@@H](CCCNC(=N)N)C(=O)N[C@H](C(=O)NCC(N)=O)CSCC(=O)N[C@@H](Cc2ccc(C(N)=O)cc2)C(=O)N(C)[C@@H](C)C(=O)N[C@@H](CC(N)=O)C(=O)N2CCC[C@H]2C(=O)N[C@@H](CN)C(=O)N[C@@H](CC(C)C)C(=O)N2C[C@H](O)C[C@H]2C(=O)N[C@@H](Cc2c[nH]c3ccccc23)C(=O)N[C@@H](CO)C(=O)N[C@@H](Cc2c[nH]c3ccccc23)C(=O)N1C [Example 7041] ({CH2CO}-[Phe(4-CONH2)][NMeA]NP[Dap]L[Hyp]WSW[NMeNle][NMeNle]RCG-NH2; thioether N-14)?
IC50 (Human PD-L1/PD-1): 6.76 to 30.3 nM; IC50 [1]: 4.78 to 72.9 nM

Which IC50 (Human PD-L1/PD-1) does the source give for CCCC[C@H]1C(=O)N(C)[C@@H](CCCC)C(=O)N[C@@H](CCCNC(=N)N)C(=O)N[C@H](C(=O)NCC(N)=O)CSCC(=O)N[C@@H](Cc2ccc(CN)cc2)C(=O)N(C)[C@@H](C)C(=O)N[C@@H](CC(N)=O)C(=O)N2CCC[C@H]2C(=O)N[C@@H](CN)C(=O)N[C@@H](CC(C)C)C(=O)N2C[C@H](O)C[C@H]2C(=O)N[C@@H](Cc2c[nH]c3ccccc23)C(=O)N[C@@H](CO)C(=O)N[C@@H](Cc2c[nH]c3ccccc23)C(=O)N1C [Example 7042] ({CH2CO}-[Phe(4-CH2NH2)][NMeA]NP[Dap]L[Hyp]WSW[NMeNle][NMeNle]RCG-NH2; thioether N-14) here?
Its IC50 is 6.76 to 30.3 nM.

What about the IC50 [1] of the same compound?
Its IC50 is 4.78 to 72.9 nM.

Which IC50 (Human PD-L1/PD-1) does the source give for CCCC[C@H]1C(=O)N(C)[C@@H](CCCC)C(=O)N[C@@H](CCCNC(=N)N)C(=O)N[C@H](C(=O)NCC(N)=O)CSCC(=O)N[C@@H](Cc2cc(F)cc(F)c2)C(=O)N(C)[C@@H](C)C(=O)N[C@@H](CC(N)=O)C(=O)N2CCC[C@H]2C(=O)N[C@@H](CN)C(=O)N[C@@H](CC(C)C)C(=O)N2C[C@H](O)C[C@H]2C(=O)N[C@@H](Cc2c[nH]c3ccccc23)C(=O)N[C@@H](CO)C(=O)N[C@@H](Cc2c[nH]c3ccccc23)C(=O)N1C [Example 7043] ({CH2CO}-[Phe(3,5-F2)][NMeA]NP[Dap]L[Hyp]WSW[NMeNle][NMeNle]RCG-NH2; thioether N-14) here?
The IC50 was 6.76 to 30.3 nM.

And the IC50 [1]?
Its IC50 is 4.78 to 72.9 nM.

CCCC[C@H]1C(=O)N(C)[C@@H](CCCC)C(=O)N[C@@H](CCCNC(=N)N)C(=O)N[C@H](C(=O)NCC(N)=O)CSCC(=O)N[C@@H](Cc2ccc(Cl)cc2)C(=O)N(C)[C@@H](C)C(=O)N[C@@H](CC(N)=O)C(=O)N2CCC[C@H]2C(=O)N[C@@H](CN)C(=O)N[C@@H](CC(C)C)C(=O)N2C[C@H](O)C[C@H]2C(=O)N[C@@H](Cc2c[nH]c3ccccc23)C(=O)N[C@@H](CO)C(=O)N[C@@H](Cc2c[nH]c3ccccc23)C(=O)N1C [Example 7044] ({CH2CO}-[Phe(4-Cl)][NMeA]NP[Dap]L[Hyp]WSW[NMeNle][NMeNle]RCG-NH2; thioether N-14) was tested. Which IC50 (Human PD-L1/PD-1) did it give?
Its IC50 is 0.385 to 6.74 nM.

And the IC50 [1]?
The IC50 was 4.78 to 72.9 nM.

Which IC50 (Human PD-L1/PD-1) does the source give for CCCC[C@H]1C(=O)N(C)[C@@H](CCCC)C(=O)N[C@@H](CCCNC(=N)N)C(=O)N[C@H](C(=O)NCC(N)=O)CSCC(=O)N[C@@H](Cc2ccc(C(C)(C)C)cc2)C(=O)N(C)[C@@H](C)C(=O)N[C@@H](CC(N)=O)C(=O)N2CCC[C@H]2C(=O)N[C@@H](Cc2cnc[nH]2)C(=O)N[C@@H](CC(C)C)C(=O)N2C[C@H](O)C[C@H]2C(=O)N[C@@H](Cc2c[nH]c3ccccc23)C(=O)N[C@@H](CO)C(=O)N[C@@H](Cc2c[nH]c3ccccc23)C(=O)N1C [Example 7045] ({CH2CO}-[Phe(4-tBu)][NMeA]NPHL[Hyp]WSW[NMeNle][NMeNle]RCG-NH2; thioether N-14) here?
Its IC50 is > 30.5 nM.

And the IC50 [1]?
Its IC50 is > 74.3 nM.

With CCCC[C@H]1C(=O)N(C)[C@@H](CCCC)C(=O)N[C@@H](CCCNC(=N)N)C(=O)N[C@H](C(=O)NCC(N)=O)CSCC(=O)N[C@@H](Cc2ccc(C#N)cc2)C(=O)N(C)[C@@H](C)C(=O)N[C@@H](CC(N)=O)C(=O)N2CCC[C@H]2C(=O)N[C@@H](Cc2cnc[nH]2)C(=O)N[C@@H](CC(C)C)C(=O)N2C[C@H](O)C[C@H]2C(=O)N[C@@H](Cc2c[nH]c3ccccc23)C(=O)N[C@@H](CO)C(=O)N[C@@H](Cc2c[nH]c3ccccc23)C(=O)N1C [Example 7046] ({CH2CO}-[Phe(4-CN)][NMeA]NPHL[Hyp]WSW[NMeNle][NMeNle]RCG-NH2; thioether N-14) as the compound, how does the IC50 (Human PD-L1/PD-1) read?
The IC50 was 0.385 to 6.74 nM.

And the IC50 [1]?
The IC50 was 0.158 to 4.71 nM.

With CCCC[C@H]1C(=O)N(C)[C@@H](CCCC)C(=O)N[C@@H](CCCNC(=N)N)C(=O)N[C@H](C(=O)NCC(N)=O)CSCC(=O)N[C@@H](Cc2ccc(F)cc2)C(=O)N(C)[C@@H](C)C(=O)N[C@@H](CC(N)=O)C(=O)N2CCC[C@H]2C(=O)N[C@@H](Cc2cnc[nH]2)C(=O)N[C@@H](CC(C)C)C(=O)N2C[C@H](O)C[C@H]2C(=O)N[C@@H](Cc2c[nH]c3ccccc23)C(=O)N[C@@H](CO)C(=O)N[C@@H](Cc2c[nH]c3ccccc23)C(=O)N1C [Example 7047] ({CH2CO}-[Phe(4-F)][NMeA]NPHL[Hyp]WSW[NMeNle][NMeNle]RCG-NH2; thioether N-14) as the compound, how does the IC50 (Human PD-L1/PD-1) read?
Its IC50 is 0.385 to 6.74 nM.

What about the IC50 [1] of the same compound?
The IC50 was 4.78 to 72.9 nM.
